Results on one compound are retold here after patent publication US20260242440A1, “NOVEL MEANS TO MODULATE NMDA RECEPTOR-MEDIATED TOXICITY” (FUNDAMENTAL PHARMA GMBH, priority 2018, published 2026).

In the test the target is T1, NMDA receptor/TRPM4 complex (Mus musculus, UniProt Q7TN37).
T1 construct: cortical lysates were obtained from control mice and from mice 2 h, 6 h and 24 h following intraperitoneal injection; from tissue; host or cells: mouse cortex (lysate after i.p. injection of compound P4)
Nature of the test: co-immunoprecipitation of NMDA receptor/TRPM4 complex from mouse cortical lysates after i.p. injection. The class given is in vivo. As to the method: In a further experiment it was assessed whether compound P4 has any impact on NMDA receptor/TRPM4 complex formation. For this purpose, co-immunoprecipitation experiments using brain lysates from the mouse cortex where carried out. Briefly, cortical lysates were obtained from control mice and from mice 2 h, 6 h and 24 h following intraperitoneal injection of compound P4 (40 mg/kg) in immunoprecipitation buffer (10 mM Tris, pH 8.0, 150 mM NaCl, 1 mM EDTA, 1% NP-40, 10% glycerol with Protease Inhibitor Cocktail, Roche) for 60 min. The lysate was then centrifuged for 12 min at 1200 g to remove cell debris and nuclei. The mixture of supernatant was incubated with anti-TRPM4 antibodies overnight. Pierce™ Protein A Magnetic Beads were added to the mixture and mixed another 12 h, followed by 3 washes with immunoprecipitation buffer. The precipitates were subsequently boiled in protein loading buffer and separated in 7.5% SDS-PAGE.

T1 sequence (Q7TN37 whole entry, one chain of several): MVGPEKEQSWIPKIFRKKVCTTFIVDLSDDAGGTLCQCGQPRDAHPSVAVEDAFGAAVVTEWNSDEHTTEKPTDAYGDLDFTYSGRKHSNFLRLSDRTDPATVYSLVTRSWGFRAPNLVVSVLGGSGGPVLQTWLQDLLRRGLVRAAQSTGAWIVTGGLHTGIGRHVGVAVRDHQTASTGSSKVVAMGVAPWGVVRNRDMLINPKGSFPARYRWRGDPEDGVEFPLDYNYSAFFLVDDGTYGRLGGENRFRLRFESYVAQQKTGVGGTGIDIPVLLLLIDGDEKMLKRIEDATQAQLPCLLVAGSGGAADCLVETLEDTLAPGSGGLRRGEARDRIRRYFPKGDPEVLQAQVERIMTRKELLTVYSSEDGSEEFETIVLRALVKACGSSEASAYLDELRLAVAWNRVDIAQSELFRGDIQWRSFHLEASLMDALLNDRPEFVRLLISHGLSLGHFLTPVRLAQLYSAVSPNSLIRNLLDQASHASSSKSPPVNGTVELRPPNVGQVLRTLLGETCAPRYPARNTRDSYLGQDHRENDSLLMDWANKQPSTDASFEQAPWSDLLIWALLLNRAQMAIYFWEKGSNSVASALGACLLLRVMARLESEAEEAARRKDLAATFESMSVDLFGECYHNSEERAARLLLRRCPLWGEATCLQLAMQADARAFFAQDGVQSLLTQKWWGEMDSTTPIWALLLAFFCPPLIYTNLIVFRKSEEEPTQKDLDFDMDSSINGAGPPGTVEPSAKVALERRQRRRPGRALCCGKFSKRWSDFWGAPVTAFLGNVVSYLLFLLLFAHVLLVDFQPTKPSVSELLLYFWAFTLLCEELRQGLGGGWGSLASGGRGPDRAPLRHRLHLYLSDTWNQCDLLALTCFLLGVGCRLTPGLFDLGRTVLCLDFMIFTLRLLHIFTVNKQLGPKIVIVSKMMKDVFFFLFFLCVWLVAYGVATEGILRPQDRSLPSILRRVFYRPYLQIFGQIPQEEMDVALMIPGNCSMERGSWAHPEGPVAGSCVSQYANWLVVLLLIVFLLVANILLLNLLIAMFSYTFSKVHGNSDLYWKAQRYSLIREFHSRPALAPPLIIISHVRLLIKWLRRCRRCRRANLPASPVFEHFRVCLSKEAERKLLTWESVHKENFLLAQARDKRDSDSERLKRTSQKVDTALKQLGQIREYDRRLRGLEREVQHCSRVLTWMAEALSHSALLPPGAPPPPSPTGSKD

In the case of `CCN(CCN)Cc1cccc(Br)c1` [P4], the “reduction in NMDA receptor/TRPM4 complex formation” value (2 h after single i.p. injection of 40 mg/kg) came out at 51% and the “reduction in NMDA receptor/TRPM4 complex formation” value (6 h after single i.p. injection of 40 mg/kg) worked out at 61%. Also, the “NMDA receptor/TRPM4 complex formation” value (24 h after i.p. injection of 40 mg/kg) was “had reformed”.
